What follows are compounds tested on A549 (assay: Cytotoxicity against human A549 cells by SRB assay).
Assay type: functional, cell-based

Compared with `CC[C@]12C=CCN3CC[C@@]4(c5cc([C@@]6(C(=O)OC)C[C@H]7C[C@@H](C(C)(F)F)CN(Cc8c6[nH]c6ccc(NC)cc86)C7)c(OC)cc5N(C)[C@H]4[C@@](O)(C(=O)OC)[C@@H]1OC(C)=O)[C@@H]32`, `CC[C@]12C=CCN3CC[C@@]4(c5cc([C@@]6(C(=O)OC)C[C@@H]7C[C@@H](C(C)(F)F)CN(Cc8c6[nH]c6ccccc86)C7)c(OC)cc5N(C)[C@H]4[C@@](O)(C(=O)OC)[C@@H]1OC(C)=O)[C@@H]32` [VINFLUNINE] is 86-fold lower in IC50: 6.91 µM for the first, 0.08 µM for the second. The second is the more potent here.

Compared with `CC[C@]12C=CCN3CC[C@@]4(c5cc([C@@]6(C(=O)OC)C[C@H]7C[C@@H](C(C)(F)F)CN(Cc8c6[nH]c6ccc(CNCCO)cc86)C7)c(OC)cc5N(C)[C@H]4[C@@](O)(C(=O)OC)[C@@H]1OC(C)=O)[C@@H]32`, `CCCCNCc1ccc2[nH]c3c(c2c1)CN1C[C@H](C[C@@H](C(C)(F)F)C1)C[C@]3(C(=O)OC)c1cc2c(cc1OC)N(C)[C@H]1[C@@](O)(C(=O)OC)[C@H](OC(C)=O)[C@]3(CC)C=CCN4CC[C@]21[C@@H]43` is 55-fold lower in IC50: 95.5 µM for the first, 1.74 µM for the second.

`CC[C@]12C=CCN3CC[C@@]4(c5cc([C@@]6(C(=O)OC)C[C@H]7C[C@@H](C(C)(F)F)CN(Cc8c6[nH]c6ccc(CNCCCN9CCOCC9)cc86)C7)c(OC)cc5N(C)[C@H]4[C@@](O)(C(=O)OC)[C@@H]1OC(C)=O)[C@@H]32` and `CC[C@]12C=CCN3CC[C@@]4(c5cc([C@@]6(C(=O)OC)C[C@H]7C[C@@H](C(C)(F)F)CN(Cc8c6[nH]c6ccc(CNCCN9CCOCC9)cc86)C7)c(OC)cc5N(C)[C@H]4[C@@](O)(C(=O)OC)[C@@H]1OC(C)=O)[C@@H]32` cannot be ordered by IC50: over 100 µM for the first, over 100 µM for the second.

Going from `CC[C@]12C=CCN3CC[C@@]4(c5cc([C@@]6(C(=O)OC)C[C@H]7C[C@@H](C(C)(F)F)CN(Cc8c6[nH]c6ccc(CN9CCOCC9)cc86)C7)c(OC)cc5N(C)[C@H]4[C@@](O)(C(=O)OC)[C@@H]1OC(C)=O)[C@@H]32` to `CC[C@]12C=CCN3CC[C@@]4(c5cc([C@@]6(C(=O)OC)C[C@H]7C[C@@H](C(C)(F)F)CN(CCc8c6[nH]c6ccc(N)cc86)C7)c(OC)cc5N(C)[C@H]4[C@@](O)(C(=O)OC)[C@@H]1OC(C)=O)[C@@H]32`, the IC50 rises from 3.93 µM to 37.8 µM (9.6-fold).

Compared with `CC[C@]12C=CCN3CC[C@@]4(c5cc([C@@]6(C(=O)OC)C[C@H]7C[C@@H](C(C)(F)F)CN(CCc8c6[nH]c6ccc(N(C)C)cc86)C7)c(OC)cc5N(C)[C@H]4[C@@](O)(C(=O)OC)[C@@H]1OC(C)=O)[C@@H]32`, `CC[C@]12C=CCN3CC[C@@]4(c5cc([C@@]6(C(=O)OC)C[C@H]7C[C@@H](C(C)(F)F)CN(Cc8c6[nH]c6ccc(CNc9ccc(OC)cc9)cc86)C7)c(OC)cc5N(C)[C@H]4[C@@](O)(C(=O)OC)[C@@H]1OC(C)=O)[C@@H]32` is 16-fold higher in IC50: 0.22 µM for the first, 3.52 µM for the second. The first is the more potent here.

Source: ChEMBL document CHEMBL1155953, “Synthesis and biological evaluation of C-12' substituted vinflunine derivatives” (Bioorg Med Chem Lett, 2008)
